Test results taken from patent US7265091B2, “Methods and compositions for treating male erectile dysfunction” (The Regents of the University of California, priority 2000, dated 2007).
Where “and” joins values, the source holds several entries; their conditions need not be identical. Equal entries are not always repeated. Where two headings read alike, the source gives them in different places.

Experiments:
[1] = test system: dorsal nerve, intracavernosal smooth muscle and endothelium; settings: ligated rats, 4 μg of VEGF
Method: The penis was dissected, thinly sliced (˜1 mm thick) and placed in Karnovsky's fixative (1% para-formaldehyde/3% glutaraldehyde/0.1 M sodium cacodylate buffer, pH 7.4) at room temperature for 30 minutes and then stored at 4° C. The fixed tissue was then rinsed in buffer, post-fixed in 2% aqueous OsO4, and stained en bloc with uranyl acetate before being dehydrated in ethanol, cleared in propyline oxide, and embedded in eponate 12 (Ted Pella Co., Redding, Calif.). Thick sections were cut and stained with toludine blue, examined under light microscope to select the area to be thin-sectioned. Thin sections were cut by Leica ultracut E microtome (Bannockburn, Ill.), stained with uranyl acetate and Reynold's Lead to enhance contrast and examined under Philips Tecnai 10 electron microscope (Eidhoven, Netherlands).

[2] = test system: cavernous smooth muscle cells (CSMC); settings: CSMC from rats of all ages, three days, serum-free medium
Method: (§1) Each primary culture of CSMC was prepared from the corpora cavernosa of 2-3 rats by the following procedure. The penis was cleared of the urethra, blood vessels, fat and connective tissue. The remaining smooth muscle tissue was washed 3 times in sterile PBS (phosphate-buffered saline) and cut into 2-3 mm^3 segments. The segments were placed evenly onto a 100-mm cell culture dish (Falcon-Becton Dickinson Labware, Franklin Lakes, N.J.) inside a cell culture hood. Approximately 10 min later, 10 ml of Dulbecco's Modified Eagle Medium (DMEM) containing penicillin (100 units/ml), streptomycin (100 μg/ml), and 10% FBS was carefully pipetted into the dish. The dish was then kept undisturbed in a humidified 37° C. incubator with 5% CO2. Five days later, tissue segments that have detached from the dish were removed, and the medium was replaced with fresh medium. Another 5 days later, all tissue segments were removed and the medium was again replaced with fresh medium. When small islands of cells were noticeable, they were trypsinized and transferred to a fresh culture dish. […]
(§2) Cell proliferation assays were performed with the CellTiter-96 kit from Promega Inc. (Madison, Wis.). […] After 4 hr of further incubation at 37° C. in the humidified, 5% CO2 incubator, color development, which reflects cell numbers, was recorded with a plate reader (Molecular Devices Corp., Sunnyvale, Calif.) at 490-nm absorbance. […]

Penile dorsal arteries = settings: serum-free medium, 3 days
Method: Penile dorsal arteries were isolated from rats and cut into 1-mm segments under a 10× microscope. Each segment was attached to a Matrigel-coated coverslip, which was then put in a 60-mm culture dish. Serum-free medium with or without VEGF was added and the arterial culture was incubated for 3 days.

[3] = test system: cavernous smooth muscle cells (CSMC); settings: 4 hr
[4] = test system: established venogenic erectile dysfunction in castrated rats; settings: castrated rats with venous leak, 1 month following VEGF treatment
Method: These animals (n=8) were treated with intracavernous VEGF protein and then after one month cavernosometry repeated to measure the effect of VEGF treatment.
A 1.5 cm oblique incision was made in the lower abdominal skin extending from the midline just above the penile hilum to below the level of the glans about 1 cm lateral to the midline. The skin was sharply dissected from the anterior surface of the penis and then the penis was retracted anteriorly using a towel clamp placed around it atraumatically with the foreskin left intact. Using blunt dissection the penile base and crura were exposed. The ischiocavernosus muscles were sharply dissected off the anterior surface of the crus until the white of the tunica albuginea of the corpora cavernosa was identified. The crus was then gently cannulated using a 23 gage butterfly needle, and saline flush with a visual erectile response was used to confirm that the needle tip was truly intracavernosal. The intracavernosal injections were then administered with either VEGF protein (Calbiochem, La Jolla, Calif. #676472) at the dosage 4 ug/injection (in 0.1 cc PBS with 0.1% BSA), AAV-VEGF (10^10 viral particles in 0.1 cc NS), AAV-LacZ (10^10 viral particles in 0.1 cc NS), or 0.1 ml NS alone. The AAV-VEGF and AAV-LacZ constructs were a generous gift from Dr. Yuet W. Kan (Howard Hughes Medical Research Institute, San Francisco, Calif.).^19,20 Following injection, the needle was left in place for 5 minutes and then removed to allow the medication to diffuse throughout the cavernosal space. Immediately thereafter, pinpoint electrocautery was applied to the needle hole for hemostasis and then the wound was closed and the animal recovered as above.
To perform pharmacologic cavemosometry, both the right and left crura were separately cannulated using 23 gauge butterfly needles as described above. […] The baseline ICP was recorded (flaccid ICP) and then a dose of papavarine (1 mg in 0.1 cc NS) was administered through the infusion cannula. […] After 5 minutes more, the ICP was again recorded (ICP after papavarine) and the infusion started. […] By slowly adjusting the inflow rate, an intracorporal pressure of 100 cm H2O (erectile pressure) was reached and the infusion rate required to maintain this pressure recorded (the maintenance rate). After this pressure was steady for 20 seconds, the infusion was terminated and the change in ICP over the subsequent 60 seconds was recorded (the drop rate).

[5] = test system: nNOS-positive nerve fibers in dorsal and intracavernous nerves; settings: 2 & 4 μg VEGF, week 6; not statistically significant
[6] = test system: Rat Model of Traumatic Arteriogenic Erectile Dysfunction
Text: Bipolar platinum-wire electrodes were used to stimulate the cavernous nerve. The exposed end of the electrodes were hooked around the nerve to be stimulated, with the positive electrode being positioned proximally and the negative electrode two to three mm distally. Stimulus parameters were 1.5 volts, frequency of 20 pulses per second, pulse width of 0.2 msec, and the duration of 50 seconds. Intracavernous pressure was monitored and recorded by inserting a number 23 scalp vein needle to one of the crura and connected to a pressure monitor.

[7] = test system: Erectile Dysfunction Induced by Hypercholesterolemia in a Rat Model; test: Erectile function in rats fed a high cholesterol diet (Example 5); type: in vivo; settings: 6 months cholesterol diet, 4 months after intracavernous treatment
Method: Twenty-one Sprague-Dawley rats were used. All rats were fed a 2.5% cholesterol diet with added lard starting at 2 weeks of age for 6 months. The rats were divided into three groups. All groups after two months of a high cholesterol diet underwent serum evaluation of cholesterol and intracavernous injection of saline or treatment. Group 1, the control group, received intracavernous injection of saline, group 2, the VEGF group, received intracavernous injection of 4 ug of VEGF, and group 3, the AAV-BDNF group received 15 ug of BDNF. After six months of cholesterol diet and 4 months of treatment, all rats were subjected to cavernous nerve electrostimulation, cavernosometry with intracavernous papaverine injection, and infusion cavernosometry with heparinized saline to measure erectile function.

VSMC (aorta SMC) = settings: VSMC from 16-weeks-old rats
Method: as §1, §2

## VEGF
[1]; 2 and 6-week groups
  appearance of endothelium of sinusoids and capillaries: endothelial cell hypertrophy and hyperplasia
  appearance of intracavernosal smooth muscle cells: most of the smooth muscle cells appeared normal
[1]; week 6
  mean diameter of the myelinated axons, dorsal nerve: 6.19±2.38 μm
  mean diameter of the nonmyelinated axons, dorsal nerve: 0.82±0.45 μm
[2]
  optimal dosage of VEGF for CSMC growth rate: 12.5 ng/mL
Penile dorsal arteries
  length of budding new blood vessels vs untreated culture: significantly longer
[3]; CSMC from 1-week-old rats
  VEGF concentration of peak CSMC migration: 1 ng/mL
[3]; CSMC from young and old rats except 1-week-old
  optimal dosage of VEGF for CSMC migration: 10 ng/mL
[4]
  Drop Rate in 1 min.: 17.4 cm H2O and 17.4(+/−24) cm H2O
  Flaccid ICP: 25.3 cm H2O
  ICP After Papavarine: 84 cm H2O and 83.9 cm H2O
  Maintenance Rate: 0.08 ml/min and 0.08(+/−0.15) ml/min
[5]
  recovery of nNOS-positive nerve fibers in dorsal and intracavernous nerves: moderate recovery
[6]; 2 μg VEGF intracavernous, Week 1
  Peak sustained intracavernous pressure during electrostimulation of the cavernous nerves: 23.50 ± 2.38 cm H20
[6]; 2 μg VEGF intracavernous, Week 2
  Peak sustained intracavernous pressure during electrostimulation of the cavernous nerves: 43.00 ± 8.37 cm H20
[6]; 2 μg VEGF intracavernous, Week 6
  Peak sustained intracavernous pressure during electrostimulation of the cavernous nerves: 69.00 ± 8.83 cm H20
[6]; 4 μg VEGF intracavernous, Week 1
  Peak sustained intracavernous pressure during electrostimulation of the cavernous nerves: 71.17 ± 16.89 cm H20
[6]; 4 μg VEGF intracavernous, Week 2
  Peak sustained intracavernous pressure during electrostimulation of the cavernous nerves: 86.25 ± 8.18 cm H20
[6]; 4 μg VEGF intracavernous, Week 6
  Peak sustained intracavernous pressure during electrostimulation of the cavernous nerves: 96.67 ± 13.50 cm H20
[6]; 2-μg and 4-μg groups, week 6
  improvement in intracavernous pressure compared with the PBS-treated group: statistically significant improvement
[6]; 4-μg group, weeks 1 and 2
  recovery of erectile function: moderate recovery
[7]
  effect on erectile dysfunction caused by high cholesterol diet: seem to reverse the erectile dysfunction
  sustained intracavernous pressures during the pharmacologic erection phase of cavernosometry, vs high cholesterol controls: significantly higher
VSMC (aorta SMC)
  effect on growth of VSMC: did not stimulate growth
